Measured values published in patent publication US6727264B1 (Synaptic Pharmaceutical Corporation, priority 2001, dated 2004).
pKi: −log10 of the molar value. Where two headings read alike, the source gives them in different places.

Target: rat MCH-1 (Rattus norvegicus, UniProt P97639)
Assay: Radioligand binding assay at cloned rat MCH1 receptor ([3H] Compound A)
Set-up: host or cells: Peak rapid 293 (Peakr293) cells, transient calcium phosphate transfection, membranes
Settings: for Ki: cloned rat MCH1 receptor, 0.08 nM [3H] Compound A, Peakr293 cell membranes, read-out: Ki (nM) rMCH1

Chain of rat MCH-1 (P97639 whole entry): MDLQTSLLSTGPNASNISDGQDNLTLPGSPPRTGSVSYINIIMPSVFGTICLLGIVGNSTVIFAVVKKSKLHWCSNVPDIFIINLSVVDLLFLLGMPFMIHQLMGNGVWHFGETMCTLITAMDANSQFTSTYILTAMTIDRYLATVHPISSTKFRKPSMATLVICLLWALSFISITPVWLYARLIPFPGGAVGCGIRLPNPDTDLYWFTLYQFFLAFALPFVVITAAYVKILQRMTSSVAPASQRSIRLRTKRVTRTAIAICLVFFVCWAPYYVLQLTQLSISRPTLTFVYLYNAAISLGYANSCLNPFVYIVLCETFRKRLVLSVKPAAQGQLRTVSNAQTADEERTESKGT

Row | Ki [nM] | pKi | SMILES
1 | 127 |  | CC(C)C(=O)Nc1cccc(C2CCN(CCCCC(O)c3cccc(F)c3)CC2)c1 (stereo not shown) [Example 815]
2 | 89.6 |  | CC(C)C(=O)Nc1cccc(C2CCN(CCCCC(O)c3cccc(Cl)c3)CC2)c1 (stereo not shown) [Example 816]
3 | 34.9 |  | CC(C)C(=O)Nc1cccc(C2CCN(CCCCCC(O)c3ccc(F)cc3)CC2)c1 (stereo not shown) [Example 817]
4 | 38.2 |  | CC(C)C(=O)Nc1cccc(C2CCN(CCCCCC(O)c3ccc(Cl)cc3)CC2)c1 (stereo not shown) [Example 818]
5 | 80.2 |  | CC(C)C(=O)Nc1cccc(C2CCN(CCCCC(O)c3ccc(Cl)cc3)CC2)c1 (stereo not shown) [Example 819]
6 | 109 |  | CCCC(=O)Nc1ccc(C2CCN(Cc3ccc4c(c3)c3ccccc3n4CC)CC2)cc1 [Example 820]
7 | 12.1 |  | CCC(=O)Nc1cccc(C2CCN(Cc3ccc4c(c3)c3ccccc3n4CC)CC2)c1 [Example 821]
8 | 1 |  | Cc1cc(CN2CCC(c3cccc(NC(=O)C(C)C)c3)CC2)cc2c3ccccc3n(C)c12 [Example 822]
9 | 2.7 |  | CCn1c2ccccc2c2cc(CN3CCC(c4cccc(NC(=O)C5CC5)c4)CC3)ccc21 [Example 823]
10 | 36.5 |  | CCn1c2ccccc2c2cc(CN3CCC(c4cccc(N5CCCC5=O)c4)CC3)ccc21 [Example 824]
11 | 601 |  | CC(C)C(=O)Nc1ccc(C2CCN(CCCCCn3ccc4ccccc43)CC2)cc1 [Example 825]
12 | 786 |  | CCCC(=O)Nc1ccc(C2CCN(CCCCCn3ccc4ccccc43)CC2)cc1 [Example 826]
13 | 215 |  | CCC(=O)Nc1ccc(C2CCN(CCCCCn3ccc4ccccc43)CC2)cc1 [Example 827]
14 | 516 |  | CCC(=O)Nc1ccc(C2CCN(CCCCCCn3ccc4ccccc43)CC2)cc1 [Example 828]
15 | 228 |  | CC(C)C(=O)Nc1cccc(C2CCN(Cc3cc4ccccc4n3C)CC2)c1 [Example 829]
16 |  | 6.33 | CC(C)C(=O)Nc1cccc(C2CCN(Cc3cccc4[nH]ccc34)CC2)c1 [Example 830]
17 | 570 |  | CC(C)C(=O)Nc1ccc(C2CCN(CCCCCCn3ccc4ccccc43)CC2)cc1 [Example 831]
18 | 614 |  | CC(C)C(=O)Nc1cccc(C2CCN(Cc3cccc4cc[nH]c34)CC2)c1 [Example 832]
19 | 27.5 |  | COc1ccc(-n2ccc3cc(CN4CCC(c5cccc(NC(=O)C(C)C)c5)CC4)ccc32)cc1 [Example 833]
20 | 38.3 |  | COC(=O)c1ccc(-n2ccc3c(CN4CCC(c5cccc(NC(=O)C(C)C)c5)CC4)cccc32)cc1 [Example 834, METHYL 4-[4-({4-[3-(ISOBUTYRYLAMINO)PHENYL]-1-PIPERIDINYL)METHYL)-1H-INDOL-1-YL]BENZOATE]
21 | 21.3 |  | Cc1cccc(-n2ccc3cc(CN4CCC(c5cccc(NC(=O)C(C)C)c5)CC4)ccc32)c1 [Example 835]
22 | 7.8 |  | CC(C)C(=O)Nc1cccc(C2CCN(Cc3cccc4c3ccn4-c3ccc(F)cc3)CC2)c1 [Example 836]
23 | 35.9 |  | CC(C)C(=O)Nc1cccc(C2CCN(CCCCn3ccc4ccccc43)CC2)c1 [Example 837]
24 | 11.2 |  | CC(C)C(=O)Nc1cccc(C2CCN(Cc3ccc4c(ccn4-c4ccc(Cl)cc4)c3)CC2)c1 [Example 838]
25 | 62.2 |  | COc1cccc(-n2ccc3cc(CN4CCC(c5cccc(NC(=O)C(C)C)c5)CC4)ccc32)c1 [Example 839]
26 | 663 |  | CCCC(=O)Nc1ccc(C2CCN(CCCCn3ccc4ccccc43)CC2)cc1 [Example 840]
27 | 25 |  | COc1ccccc1-n1ccc2cc(CN3CCC(c4cccc(NC(=O)C(C)C)c4)CC3)ccc21 [Example 841]
28 | 15.8 |  | CC(C)C(=O)Nc1cccc(C2CCN(Cc3ccc4c(ccn4-c4cccc(Cl)c4)c3)CC2)c1 [Example 842]

Row | Ki [nM] | pKi | SMILES
29 | 15.5 |  | COC(=O)c1ccccc1-n1ccc2cc(CN3CCC(c4cccc(NC(=O)C(C)C)c4)CC3)ccc21 [Example 843, METHYL 2-[5-({4-[3-(ISOBUTYRYLAMINO)PHENYL]-1-PIPERIDINYL}METHYL)-1H-INDOL-1-YL]BENZOATE]
30 | 37.8 |  | CC(C)C(=O)Nc1cccc(C2CCN(CCCn3ccc4ccccc43)CC2)c1 [Example 844]
31 | 43.1 |  | CC(C)C(=O)Nc1cccc(C2CCN(Cc3ccc4c(ccn4-c4ccc(C(F)(F)F)cc4)c3)CC2)c1 [Example 845]
32 | 18.4 |  | CC(C)C(=O)Nc1cccc(C2CCN(Cc3ccc4c(ccn4-c4ccccc4-c4ccccc4)c3)CC2)c1 [Example 846]
33 | 10.2 |  | Cc1ccccc1-n1ccc2cc(CN3CCC(c4cccc(NC(=O)C(C)C)c4)CC3)ccc21 [Example 847]
34 | 19.1 |  | Cc1ccc(-n2ccc3cc(CN4CCC(c5cccc(NC(=O)C(C)C)c5)CC4)ccc32)cc1 [Example 848]
35 | 9.4 |  | CC(C)C(=O)Nc1cccc(C2CCN(Cc3ccc4c(ccn4-c4ccccc4Cl)c3)CC2)c1 [Example 849]
36 | 9.5 |  | CC(C)C(=O)Nc1cccc(C2CCN(Cc3ccc4c(ccn4-c4cccc(C(F)(F)F)c4)c3)CC2)c1 [Example 850]
37 | 27.4 |  | CC(C)C(=O)Nc1cccc(C2CCN(Cc3ccc4c(ccn4-c4ccccc4[N+](=O)[O-])c3)CC2)c1 [Example 851]
38 | 14.5 |  | CC(C)C(=O)Nc1cccc(C2CCN(Cc3ccc4c(ccn4-c4ccccc4F)c3)CC2)c1 [Example 852]
39 | 48 |  | CC(C)C(=O)Nc1cccc(C2CCN(Cc3ccc4c(ccn4-c4cccc5ccccc45)c3)CC2)c1 [Example 853]
40 | 13.8 |  | CC(C)C(=O)Nc1cccc(C2CCN(Cc3ccc4c(ccn4-c4cccc(Cl)c4Cl)c3)CC2)c1 [Example 854]
41 | 256 |  | CC(C)C(=O)Nc1cccc(C2CCN(Cc3cccc4ccn(-c5cccc(Cl)c5Cl)c34)CC2)c1 [Example 855]
42 | 123 |  | COc1cccc(-n2ccc3c(CN4CCC(c5cccc(NC(=O)C(C)C)c5)CC4)cccc32)c1 [Example 856]
43 | 89.8 |  | CC(C)C(=O)Nc1cccc(C2CCN(Cc3cccc4c3ccn4-c3cccc(Cl)c3Cl)CC2)c1 [Example 857]
44 | 44.9 |  | CC(C)C(=O)Nc1cccc(C2CCN(Cc3cccc4c3ccn4-c3cccc(Cl)c3)CC2)c1 [Example 858]
45 | 321 |  | Cc1cccc(-n2ccc3c(CN4CCC(c5cccc(NC(=O)C(C)C)c5)CC4)cccc32)c1 [Example 859]
46 | 40.5 |  | COc1cccc(-n2ccc3cccc(CN4CCC(c5cccc(NC(=O)C(C)C)c5)CC4)c32)c1 [Example 860]
47 | 94.1 |  | CC(C)C(=O)Nc1cccc(C2CCN(Cc3cccc4c3ccn4-c3cccc(C(F)(F)F)c3)CC2)c1 [Example 861]
48 | 438 |  | Cc1ccc(-n2ccc3c(CN4CCC(c5cccc(NC(=O)C(C)C)c5)CC4)cccc32)cc1C [Example 862]
49 | 269 |  | CC(C)C(=O)Nc1cccc(C2CCN(Cc3cccc4c3ccn4-c3cc(Cl)cc(Cl)c3)CC2)c1 [Example 863]
50 | 292 |  | CC(C)C(=O)Nc1cccc(C2CCN(Cc3cccc4c3ccn4-c3ccc(Cl)c(Cl)c3)CC2)c1 [Example 864]
51 | 94.6 |  | CC(C)C(=O)Nc1cccc(C2CCN(Cc3cccc4c3ccn4-c3ccc(F)cc3Cl)CC2)c1 [Example 865]
52 | 169 |  | CC(C)C(=O)Nc1cccc(C2CCN(Cc3cccc4c3ccn4-c3ccc(F)cc3F)CC2)c1 [Example 866]
53 | 892 |  | CC(C)C(=O)Nc1cccc(C2CCN(Cc3cccc4ccn(-c5cccnc5)c34)CC2)c1 [Example 867]
54 | 403 |  | CC(C)C(=O)Nc1cccc(C2CCN(Cc3ccc4cc[nH]c4c3)CC2)c1 [Example 868]
55 | 431 |  | CC(C)C(=O)Nc1cccc(C2CCN(Cc3cccc4c3ccn4-c3ccncc3)CC2)c1 [Example 869]
